# Laboratory results from paper PMC7237647, “Synthesis, in vitro and in vivo evaluation of ^11C-O-methylated arylpiperazines as potential serotonin 1A (5-HT1A) receptor antagonist radiotracers” (EJNMMI Radiopharmacy and Chemistry, 2020).
# Experiments:
# [1] = biological target: D4; set-up: method as in Yasuno et al. [2006]; conditions: ref Yasuno et al. [2006]; cited from earlier work
# [2] = biological target: 5-HT2B receptors; set-up: method as in Yasuno et al. [2006]; conditions: ref Yasuno et al. [2006]; cited from earlier work
# [3] = biological target: D2; set-up: method as in Yasuno et al. [2006]; conditions: ref Yasuno et al. [2006]; cited from earlier work
# [4] = biological target: alpha-1 (α1) adrenergic receptors; set-up: method as in Yasuno et al. [2006]; conditions: ref Yasuno et al. [2006]; cited from earlier work
# [5] = biological target: 5-HT1A receptors; set-up: method as in Yasuno et al. [2006]; conditions: ref Yasuno et al. [2006]; cited from earlier work
# [6] = biological target: D3; set-up: method as in Yasuno et al. [2006]; conditions: ref Yasuno et al. [2006]; cited from earlier work
# [7] = biological target: T1, D3R (Homo sapiens, UniProt P35462); assay: NIMH-PDSP radioligand binding assay, D3R
# T1 construct: NIMH-PDSP
# T1 sequence (P35462 whole entry): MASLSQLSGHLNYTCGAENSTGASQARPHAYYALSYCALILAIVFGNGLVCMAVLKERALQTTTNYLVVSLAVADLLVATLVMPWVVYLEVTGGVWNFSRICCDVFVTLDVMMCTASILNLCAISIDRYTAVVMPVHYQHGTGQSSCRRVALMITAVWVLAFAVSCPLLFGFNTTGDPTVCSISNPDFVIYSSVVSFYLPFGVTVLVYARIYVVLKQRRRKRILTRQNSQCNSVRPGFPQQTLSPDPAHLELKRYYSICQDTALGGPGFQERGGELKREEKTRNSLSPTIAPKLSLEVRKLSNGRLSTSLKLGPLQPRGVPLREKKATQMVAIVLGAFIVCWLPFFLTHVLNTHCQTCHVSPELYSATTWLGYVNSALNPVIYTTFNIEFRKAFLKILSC
# Experimental: (§1) . Cross selectivity for biogenic amines, neurotransmitter receptors, and transporters were determined by radioligand binding assays through NIMH- PDSP using validated and established protocols ([NIMH-PDSP Assay Protocol Book Version III, March 2018]).
# [8] = biological target: T2, PBR (Rattus norvegicus, UniProt P16257); assay: NIMH-PDSP radioligand binding assay, PBR
# T2 construct: NIMH-PDSP
# Experimental: as §1
# [9] = biological target: T3, Sigma1R (Homo sapiens, UniProt Q99720); assay: NIMH-PDSP radioligand binding assay, Sigma1R
# T3 construct: NIMH-PDSP
# T3 sequence (Q99720 whole entry, species assumed): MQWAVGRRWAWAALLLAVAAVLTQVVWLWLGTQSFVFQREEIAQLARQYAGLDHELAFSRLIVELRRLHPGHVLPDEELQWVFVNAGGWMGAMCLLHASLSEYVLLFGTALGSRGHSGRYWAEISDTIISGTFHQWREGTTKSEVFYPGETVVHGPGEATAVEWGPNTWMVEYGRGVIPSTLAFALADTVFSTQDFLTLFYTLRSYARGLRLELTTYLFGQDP
# Experimental: as §1
# [10] = biological target: T4, 5-HT3 (Homo sapiens, UniProt P46098); assay: NIMH-PDSP radioligand binding assay, 5-HT3
# T4 construct: NIMH-PDSP
# T4 sequence (P46098 24-478): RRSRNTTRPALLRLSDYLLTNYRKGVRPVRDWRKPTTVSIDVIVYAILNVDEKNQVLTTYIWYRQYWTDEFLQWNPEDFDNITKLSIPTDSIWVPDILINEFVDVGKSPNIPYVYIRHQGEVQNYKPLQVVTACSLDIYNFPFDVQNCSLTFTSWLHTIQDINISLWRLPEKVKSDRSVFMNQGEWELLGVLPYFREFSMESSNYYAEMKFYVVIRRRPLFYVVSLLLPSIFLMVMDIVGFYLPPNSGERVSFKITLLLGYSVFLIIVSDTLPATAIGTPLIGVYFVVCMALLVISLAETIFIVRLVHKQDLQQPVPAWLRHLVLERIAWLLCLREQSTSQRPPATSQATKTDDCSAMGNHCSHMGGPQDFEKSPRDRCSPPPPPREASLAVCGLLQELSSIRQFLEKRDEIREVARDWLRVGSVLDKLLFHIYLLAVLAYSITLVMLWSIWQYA
# Experimental: as §1
# [11] = biological target: T5, 5-HT1B (Homo sapiens, UniProt P28222); assay: NIMH-PDSP radioligand binding assay, 5-HT1B
# T5 construct: NIMH-PDSP
# Experimental: as §1
# [12] = biological target: T6, 5-HT6 (Homo sapiens, UniProt P50406); assay: NIMH-PDSP radioligand binding assay, 5-HT6
# T6 construct: NIMH-PDSP
# T6 sequence (P50406 whole entry, species assumed): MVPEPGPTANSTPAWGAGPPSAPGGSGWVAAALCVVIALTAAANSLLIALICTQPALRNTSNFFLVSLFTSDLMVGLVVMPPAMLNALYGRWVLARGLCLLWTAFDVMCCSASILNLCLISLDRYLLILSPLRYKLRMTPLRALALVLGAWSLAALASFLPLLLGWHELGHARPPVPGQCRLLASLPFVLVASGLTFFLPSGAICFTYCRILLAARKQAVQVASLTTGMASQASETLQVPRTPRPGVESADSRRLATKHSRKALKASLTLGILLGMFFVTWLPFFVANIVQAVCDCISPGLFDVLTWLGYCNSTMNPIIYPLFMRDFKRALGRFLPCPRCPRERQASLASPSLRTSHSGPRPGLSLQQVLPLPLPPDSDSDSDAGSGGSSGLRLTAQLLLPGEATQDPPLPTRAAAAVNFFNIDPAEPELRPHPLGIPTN
# Experimental: as §1
# [13] = biological target: T7, 5-HT1D (Homo sapiens, UniProt P28221); assay: NIMH-PDSP radioligand binding assay, 5-HT1D
# T7 construct: NIMH-PDSP
# T7 sequence (P28221 whole entry, species assumed): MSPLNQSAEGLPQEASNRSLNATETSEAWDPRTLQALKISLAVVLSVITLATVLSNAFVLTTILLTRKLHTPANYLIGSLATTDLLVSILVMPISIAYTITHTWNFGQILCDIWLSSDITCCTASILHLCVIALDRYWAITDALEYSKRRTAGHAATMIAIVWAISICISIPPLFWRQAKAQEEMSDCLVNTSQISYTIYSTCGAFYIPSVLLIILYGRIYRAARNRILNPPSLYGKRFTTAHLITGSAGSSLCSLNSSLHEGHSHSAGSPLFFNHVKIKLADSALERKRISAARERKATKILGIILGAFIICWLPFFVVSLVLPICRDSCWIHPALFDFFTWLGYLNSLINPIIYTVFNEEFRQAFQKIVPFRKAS
# Experimental: as §1
# [14] = biological target: T8, 5-HT5a (Homo sapiens, UniProt P47898); assay: NIMH-PDSP radioligand binding assay, 5-HT5a
# T8 construct: NIMH-PDSP
# Experimental: as §1
# [15] = biological target: DAT (Homo sapiens, UniProt Q01959); assay: NIMH-PDSP radioligand binding assay, DAT
# DAT, sequence (Q01959 whole entry, species assumed): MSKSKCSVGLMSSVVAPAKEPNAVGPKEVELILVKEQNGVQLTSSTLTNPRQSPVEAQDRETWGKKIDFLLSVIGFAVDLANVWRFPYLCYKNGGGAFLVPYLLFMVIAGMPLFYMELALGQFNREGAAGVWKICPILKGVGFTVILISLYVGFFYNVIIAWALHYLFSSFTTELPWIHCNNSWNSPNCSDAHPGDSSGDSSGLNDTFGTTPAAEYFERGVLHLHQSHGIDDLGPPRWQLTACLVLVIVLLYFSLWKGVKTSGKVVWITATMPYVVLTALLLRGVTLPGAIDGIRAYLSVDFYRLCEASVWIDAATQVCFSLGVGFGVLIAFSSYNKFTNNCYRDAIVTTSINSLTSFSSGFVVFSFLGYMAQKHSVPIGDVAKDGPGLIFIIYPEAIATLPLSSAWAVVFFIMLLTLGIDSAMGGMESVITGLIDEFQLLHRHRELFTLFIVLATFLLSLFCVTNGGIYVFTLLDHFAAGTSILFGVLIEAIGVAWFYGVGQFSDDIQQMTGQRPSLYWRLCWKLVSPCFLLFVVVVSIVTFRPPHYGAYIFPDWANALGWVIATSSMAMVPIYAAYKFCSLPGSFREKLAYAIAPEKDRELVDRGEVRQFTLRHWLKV
# Experimental: as §1
# [16] = biological target: T9, 5-HT4 (Homo sapiens, UniProt Q13639); assay: NIMH-PDSP radioligand binding assay, 5-HT4
# T9 construct: NIMH-PDSP
# T9 sequence (Q13639 whole entry, species assumed): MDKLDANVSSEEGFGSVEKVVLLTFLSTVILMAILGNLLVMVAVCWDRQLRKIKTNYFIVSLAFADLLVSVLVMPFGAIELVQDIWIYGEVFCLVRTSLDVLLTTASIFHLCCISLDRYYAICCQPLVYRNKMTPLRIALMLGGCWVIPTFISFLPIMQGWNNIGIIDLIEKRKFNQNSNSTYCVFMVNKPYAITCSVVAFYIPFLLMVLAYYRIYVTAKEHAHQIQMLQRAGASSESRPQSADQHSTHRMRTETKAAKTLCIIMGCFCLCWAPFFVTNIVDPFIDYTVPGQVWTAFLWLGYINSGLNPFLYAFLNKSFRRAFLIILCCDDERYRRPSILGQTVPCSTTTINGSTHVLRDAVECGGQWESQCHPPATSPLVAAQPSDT
# Experimental: as §1
# [17] = biological target: T10, D4R (Homo sapiens, UniProt P21917); assay: NIMH-PDSP radioligand binding assay, D4R
# T10 construct: NIMH-PDSP
# T10 sequence (P21917 1-419): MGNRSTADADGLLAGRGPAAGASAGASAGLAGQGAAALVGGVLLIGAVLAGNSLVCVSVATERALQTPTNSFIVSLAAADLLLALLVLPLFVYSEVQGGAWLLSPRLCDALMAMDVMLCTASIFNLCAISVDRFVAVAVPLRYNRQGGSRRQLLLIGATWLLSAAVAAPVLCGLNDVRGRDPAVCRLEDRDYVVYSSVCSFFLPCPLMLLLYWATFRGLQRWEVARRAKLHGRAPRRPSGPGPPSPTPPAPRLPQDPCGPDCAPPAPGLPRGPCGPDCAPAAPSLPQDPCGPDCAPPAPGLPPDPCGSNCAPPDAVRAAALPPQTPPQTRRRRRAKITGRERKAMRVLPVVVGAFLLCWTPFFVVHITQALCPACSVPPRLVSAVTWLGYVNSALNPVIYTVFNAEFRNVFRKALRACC
# Experimental: as §1
# [18] = biological target: T11, 5-HT1E (Homo sapiens, UniProt P28566); assay: NIMH-PDSP radioligand binding assay, 5-HT1E
# T11 construct: NIMH-PDSP
# T11 sequence (P28566 whole entry, species assumed): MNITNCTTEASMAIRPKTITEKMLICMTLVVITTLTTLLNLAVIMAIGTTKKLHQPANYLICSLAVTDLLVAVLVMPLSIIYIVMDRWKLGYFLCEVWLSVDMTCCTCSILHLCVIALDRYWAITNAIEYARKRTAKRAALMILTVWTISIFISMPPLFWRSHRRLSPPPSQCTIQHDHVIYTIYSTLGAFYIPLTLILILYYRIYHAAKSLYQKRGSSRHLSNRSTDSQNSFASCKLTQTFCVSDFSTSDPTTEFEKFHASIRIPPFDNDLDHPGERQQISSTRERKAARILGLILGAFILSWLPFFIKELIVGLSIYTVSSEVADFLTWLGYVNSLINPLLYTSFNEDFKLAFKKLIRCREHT
# Experimental: as §1
# [19] = biological target: SERT (Homo sapiens, UniProt P31645); assay: NIMH-PDSP radioligand binding assay, SERT
# SERT, sequence (P31645 whole entry, species assumed): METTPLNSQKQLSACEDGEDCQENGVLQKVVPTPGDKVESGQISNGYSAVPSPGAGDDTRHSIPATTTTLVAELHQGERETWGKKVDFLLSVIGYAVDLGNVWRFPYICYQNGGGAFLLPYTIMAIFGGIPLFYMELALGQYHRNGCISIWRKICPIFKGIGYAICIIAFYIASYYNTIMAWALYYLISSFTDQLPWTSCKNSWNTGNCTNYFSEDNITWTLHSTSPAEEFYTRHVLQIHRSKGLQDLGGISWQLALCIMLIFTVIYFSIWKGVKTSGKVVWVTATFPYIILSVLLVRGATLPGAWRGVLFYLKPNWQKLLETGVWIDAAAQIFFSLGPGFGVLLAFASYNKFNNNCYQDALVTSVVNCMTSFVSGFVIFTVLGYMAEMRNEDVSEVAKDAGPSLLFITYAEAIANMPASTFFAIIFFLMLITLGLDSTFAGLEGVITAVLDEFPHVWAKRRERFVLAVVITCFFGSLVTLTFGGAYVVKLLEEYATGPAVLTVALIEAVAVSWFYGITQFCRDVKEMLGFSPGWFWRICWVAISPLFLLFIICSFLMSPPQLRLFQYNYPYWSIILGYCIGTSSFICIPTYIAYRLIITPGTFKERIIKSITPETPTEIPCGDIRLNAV
# Experimental: as §1
# [20] = biological target: NET (Homo sapiens, UniProt P23975); assay: NIMH-PDSP radioligand binding assay, NET
# NET, sequence (P23975 whole entry): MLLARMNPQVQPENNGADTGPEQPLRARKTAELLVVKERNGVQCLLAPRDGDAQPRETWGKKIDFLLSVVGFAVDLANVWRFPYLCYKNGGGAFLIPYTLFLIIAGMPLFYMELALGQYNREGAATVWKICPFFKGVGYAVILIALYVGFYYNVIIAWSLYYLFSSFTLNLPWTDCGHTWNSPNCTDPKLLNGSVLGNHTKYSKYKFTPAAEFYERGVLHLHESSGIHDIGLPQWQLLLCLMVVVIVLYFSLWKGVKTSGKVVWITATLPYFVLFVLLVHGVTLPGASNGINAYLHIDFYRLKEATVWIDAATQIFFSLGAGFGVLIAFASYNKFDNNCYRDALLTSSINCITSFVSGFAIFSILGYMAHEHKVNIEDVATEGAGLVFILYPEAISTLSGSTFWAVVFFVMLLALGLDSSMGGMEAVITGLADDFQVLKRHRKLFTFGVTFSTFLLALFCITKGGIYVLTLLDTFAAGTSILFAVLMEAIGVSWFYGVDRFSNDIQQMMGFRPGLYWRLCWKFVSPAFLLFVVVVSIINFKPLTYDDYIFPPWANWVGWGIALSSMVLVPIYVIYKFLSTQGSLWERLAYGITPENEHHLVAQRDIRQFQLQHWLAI
# Experimental: as §1
# [21] = biological target: T12, NOP (Homo sapiens, UniProt P41146); assay: NIMH-PDSP radioligand binding assay, NOP
# T12 construct: NIMH-PDSP
# T12 sequence (P41146 whole entry): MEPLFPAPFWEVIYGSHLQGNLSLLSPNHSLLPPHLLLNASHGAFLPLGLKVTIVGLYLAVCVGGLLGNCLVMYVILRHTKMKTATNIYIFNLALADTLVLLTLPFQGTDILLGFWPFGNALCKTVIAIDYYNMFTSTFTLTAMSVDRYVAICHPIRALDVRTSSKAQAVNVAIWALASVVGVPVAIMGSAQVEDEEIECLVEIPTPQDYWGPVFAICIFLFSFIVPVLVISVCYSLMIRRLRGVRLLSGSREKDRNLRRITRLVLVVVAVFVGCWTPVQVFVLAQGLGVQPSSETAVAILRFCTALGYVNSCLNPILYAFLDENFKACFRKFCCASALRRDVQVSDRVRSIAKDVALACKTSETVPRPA
# Experimental: as §1
# [22] = biological target: T13, 5-HT2B (Homo sapiens, UniProt P41595); assay: NIMH-PDSP radioligand binding assay, 5-HT2B
# T13 construct: NIMH-PDSP
# T13 sequence (P41595 whole entry, species assumed): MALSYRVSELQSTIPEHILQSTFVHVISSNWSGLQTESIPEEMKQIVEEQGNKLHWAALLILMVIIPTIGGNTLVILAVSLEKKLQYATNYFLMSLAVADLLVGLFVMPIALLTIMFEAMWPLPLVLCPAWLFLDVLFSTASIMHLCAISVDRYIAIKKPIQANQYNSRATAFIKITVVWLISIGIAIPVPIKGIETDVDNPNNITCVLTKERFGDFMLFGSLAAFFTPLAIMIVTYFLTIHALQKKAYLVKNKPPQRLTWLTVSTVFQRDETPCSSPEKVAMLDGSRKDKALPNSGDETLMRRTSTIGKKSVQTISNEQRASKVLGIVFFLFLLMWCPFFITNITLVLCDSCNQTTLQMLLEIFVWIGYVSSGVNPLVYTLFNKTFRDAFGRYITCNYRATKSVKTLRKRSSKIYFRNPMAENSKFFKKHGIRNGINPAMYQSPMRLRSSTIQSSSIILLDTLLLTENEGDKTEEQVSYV
# Experimental: as §1
# [23] = Dynamic PET/MR imaging of brain uptake in rats; type: in vivo; conditions: rat; for Brain uptake: dynamic PET, bolus i.v. injection, 60 min scan
# Experimental: […]. All experimental procedures were carried out in accordance with the Institutional Animal Care Committee ethical guidelines (Animal Use Protocol # 783).
# Adult male Sprague Dawley rats (500–600 g, 8–12 months old) were anesthetized by isoflurane (5% induction; O2 rate: 2 L/min) and catheterized in the lateral tail vein using a Surflash Polyurethane IV Catheter 24G × 3/4″(Terumo; Somerset, New Jersey, US). Following insertion, the catheter was flushed with heparinized saline (30 IU/ml, ~ 200 μl). The animal was transferred to the scanner bed in prone position, the head immobilized in a flat skull position for the duration of the acquisition using built in ear and bite bars; the scanner bed temperature was initially set at 40 °C but was subject to alteration based on animals’ body temperature during the experiment. Anesthesia was maintained throughout the PET/MR scanning procedure (isoflurane: 1.5–2%; O2 rate: 1 L/min) and the animals’ body temperature and respiration parameters were closely monitored.
# Imaging studies were conducted on a nanoScan PET/MRI 3 T tomograph (Mediso; Budapest, Hungary). At first, a scout MR was acquired for subsequent PET field of view (FOV) positioning. MR images were used to define anatomical regions of interest (ROIs) through PET/MRI image co-registration. MR sequences included: material map T1-weighted 2D-gradient echo (GRE, TR 354 ms, TE 3.64) multi-FOV sequence for PET and MR co-registration and PET scatter and attenuation corrections, and T2-weighted 2D-fast spin-echo (FSE, TR 3971 ms, TE 87.5 ms) sequence for co-registration with standard rat brain MR template and atlas of Schwarz et al. ([2006]), and PET ROI analyses. MR images were acquired either before or after PET imaging.
# […]. mass injected for [^11C]1–3: 0.15–0.40 nmol/kg), a 60 min emission list mode scan was acquired with an energy window of 400–600 keV.
# The acquired list mode data was sorted into 33, 3D (3 × 5 s, 3 × 15 s, 3 × 20s, 7 × 60s and 17 × 180 s) true sinograms (ring difference 84). The 3D sinograms were converted in 2D sinograms using fourier-rebinning (Defrise et al. [1997]), during which corrections were included for detector geometry and efficiencies, attenuation and scatter, prior to image reconstruction using a 2D–filtered back projection (FBKP) with an Hann filter at a cutoff of 0.50 cm-1. A static image of the complete emission acquisition was reconstructed with the manufacturer’s proprietary iterative 3D algorithm (6 subsets, 4 iterations). All image data were corrected for dead-time and decay corrected to the start of acquisition. The dynamic FBKP images were used for the extraction of time-activity curves (TACs). The static iterative image was used for PET and MR co-registration and also for co-registration with standard rat brain MR template and atlas (Schwarz et al. [2006]). Image analyses and extraction of regional brain TACs were performed using Amide software (v1.0.4) (Loening and Gambhir [2003]). Standardized uptake values (SUV) were calculated by normalizing regional radioactivity for injected radioactivity and body weight of the animal. Regional brain BP were obtained by using simplified reference tissue model (SRTM) of Lammertsma and Hume ([1996]), with averaged TACs of left and right cerebellum as the reference. […] Percentages of blocking were calculated by the equation: Blocking% = 100 x (BPblocking – BPbaseline)/BPbaseline.
# [24] = tested on: α1-adrenergic receptors; assay: PET/MR blocking study with prazosin pre-treatment; type: in vivo, Sprague Dawley rats; conditions: prazosin 2 mg/kg IV 20 min prior to tracer, rat
# Experimental: 5-HT1A receptor selectivity of the radiotracer with the most promising brain penetrating properties was further investigated in two separate baseline and pre-treatment (blocking) experiments. A within-subject PET/MR imaging design was employed for baseline and blocking experiments. In the first PET/MR imaging session, brain radiotracer uptake was determined under baseline conditions whereby radiotracer was intravenously administered simultaneously with the start of PET acquisition. The catheter was flushed with heparinized saline (~ 100 μl) and capped to allow blocker/radiotracer injections for the subsequent pre-treatment experiment. Before the start of the second PET measurement, the animals were infused with a suitable blocking agent intravenously 20 min prior to radiotracer injection and concomitant PET acquisition. To confirm target engagement at 5-HT1A receptor, WAY-100635 maleate (Sigma-Aldrich), a potent 5-HT1A receptor antagonist (2 mg/kg) was infused intravenously 20 min before radiotracer injection. In order to further investigate potential off-target binding at α1-adrenergic receptors in vivo, prazosin hydrochloride (Sigma-Aldrich), a potent α1-adrenergic receptor antagonist (2 mg/kg) was infused 20 min before radiotracer injection and PET acquisition.
# The acquired list mode data was sorted into 33, 3D (3 × 5 s, 3 × 15 s, 3 × 20s, 7 × 60s and 17 × 180 s) true sinograms (ring difference 84). The 3D sinograms were converted in 2D sinograms using fourier-rebinning (Defrise et al. [1997]), during which corrections were included for detector geometry and efficiencies, attenuation and scatter, prior to image reconstruction using a 2D–filtered back projection (FBKP) with an Hann filter at a cutoff of 0.50 cm-1. A static image of the complete emission acquisition was reconstructed with the manufacturer’s proprietary iterative 3D algorithm (6 subsets, 4 iterations). All image data were corrected for dead-time and decay corrected to the start of acquisition. The dynamic FBKP images were used for the extraction of time-activity curves (TACs). The static iterative image was used for PET and MR co-registration and also for co-registration with standard rat brain MR template and atlas (Schwarz et al. [2006]). Image analyses and extraction of regional brain TACs were performed using Amide software (v1.0.4) (Loening and Gambhir [2003]). Standardized uptake values (SUV) were calculated by normalizing regional radioactivity for injected radioactivity and body weight of the animal. Regional brain BP were obtained by using simplified reference tissue model (SRTM) of Lammertsma and Hume ([1996]), with averaged TACs of left and right cerebellum as the reference. This was performed by using the basis function method (BFM) of Gunn et al. ([1997]) in the package of Turku PET Centre (https://gitlab.utu.fi/vesoik/tpcclib) (Gunn et al. [1997]). Percentages of blocking were calculated by the equation: Blocking% = 100 x (BPblocking – BPbaseline)/BPbaseline.
# [25] = biological target: α1-adrenergic receptors; set-up: method as in Chemel et al. [2006]; conditions: ref Chemel et al. [2006]; cited from earlier work
compound,measurement,setting,value
COc1ccccc1N1CCN(CCC(C(=O)N2CCCCCC2)c2ccccc2)CC1 (stereo in doubt) [[^11C](R)-RWAY],Ki,[1],0.0156 µM
same,Ki,[2],0.0072 µM
same,Ki,[3],0.0345 µM
same,Ki,[4],0.0103 µM
same,Ki,[5],0.0006 µM
same,Ki,[6],0.0051 µM
"O=C(NCCN1CCN(c2ccccc2O)CC1)c1ccccn1 [10a, N-(2-(4-(2-hydroxyphenyl)piperazin-1-yl)ethyl)picolinamide]",melting point,,112 to 113 °C
"O=C(NCCN1CCN(c2ccccc2O)CC1)c1ccncc1 [10b, N-(2-(4-(2-hydroxyphenyl)piperazin-1-yl)ethyl)isonicotinamide]",melting point,,105 to 106 °C
COc1ccccc1N1CCN(CCNC(=O)c2ccncc2)CC1 [Compound 3],Ki,[7],0.133 µM
same,Ki,[8],> 10 µM
same,Ki,[9],> 10 µM
same,Ki,[10],> 10 µM
same,Ki,[11],> 10 µM
same,Ki,[12],> 10 µM
same,Ki,[13],1.18 µM
same,Ki,[14],1.81 µM
same,Ki,[15],> 10 µM
same,Ki,[16],> 10 µM
same,Ki,[17],0.153 µM
same,Ki,[18],> 10 µM
same,Ki,[19],> 10 µM
same,Ki,[20],> 10 µM
same,Ki,[21],> 10 µM
same,Ki,[22],0.137 µM
[11CH3]Oc1ccccc1N1CCN(CCCN/C(=N\C#N)c2ccccn2)CC1 [[^11C]1],Brain uptake,[23],negligible
[11CH3]Oc1ccccc1N1CCN(CCNC(=O)c2ccccn2)CC1 [[^11C]2],Brain uptake,[23],negligible
[11CH3]Oc1ccccc1N1CCN(CCNC(=O)c2ccncc2)CC1 [[^11C]3],early peak SUV in brain,"[23]; male, Sprague Dawley, in vivo",4–5
same,time of early peak SUV following radiotracer injection,"[23]; male, Sprague Dawley, in vivo",~ 1 min
same,washout from brain,[23]; in vivo,fast
same,decrease of whole brain BP,"[24]; SRTM, cerebellum reference",63%
same,decrease of BP in anterior cingulate cortex,[24],69%
same,decrease of BP in hippocampus,[24],56%
same,decrease of BP in striatum,[24],34%
same,decrease of BP in thalamus,[24],73%
same,decrease of binding in the saliva gland,[24],68%
COc1ccccc1N1CCN(CCN(C(=O)C2CCCCC2)c2ccccn2)CC1 [[carbonyl-^11C]WAY100635],Ki,[25],0.0164 µM
"N#CN=C(NCCCN1CCN(c2ccccc2O)CC1)c1ccccn1 [compound 7, N'-Cyano-N-(3-(4-(2-hydroxyphenyl)piperazin-1-yl)propyl)picolinamidine]",melting point,,137 to 138 °C
